Read-outs that look alike come from different tables or passages of the source.
Key:
[1] = target: T1, BB1 (Homo sapiens, UniProt P28336); test: GPCR calcium flux assay; format: cell-based
T1 construct: Pharmaron (Beijing, China), contract laboratory

[2] = Pharmacokinetics in CD1 mice; format: in vivo, mouse; settings: for AUC(0-t): read-out: AUC0-24
Excerpt: 5% (v/v) dimethyl sulfoxide ( DMSO), 10% solutol, and 85% β -cyclodextrin) to male CD1 mice (n = 3). Blood samples were collected at 0.08, 0.25, 0.5, 1, 2, 4, 8, and 24 hr after administration. After suitable sample preparation, the concentration of TP -16 in plasma samples was determine d by the Agilent 1290 HPLC system, coupled with a 6460 triple -quadrupole mass spectrometer and an Agilent Jet Stream electrospray ionization (ESI) source (Agilent
Technologies, USA). Pharmacokinetic parameters were calculated by WinNonlin software version 7.0 based on non -compartmental analysis
(Pharsight Corporation, Mountain View, USA). […]

[3] = target: T2, CHRM1 (Homo sapiens, UniProt P11229); test: GPCR calcium flux assay; format: cell-based
T2 construct: Pharmaron (Beijing, China), contract laboratory
T2 sequence (P11229 whole entry, species assumed): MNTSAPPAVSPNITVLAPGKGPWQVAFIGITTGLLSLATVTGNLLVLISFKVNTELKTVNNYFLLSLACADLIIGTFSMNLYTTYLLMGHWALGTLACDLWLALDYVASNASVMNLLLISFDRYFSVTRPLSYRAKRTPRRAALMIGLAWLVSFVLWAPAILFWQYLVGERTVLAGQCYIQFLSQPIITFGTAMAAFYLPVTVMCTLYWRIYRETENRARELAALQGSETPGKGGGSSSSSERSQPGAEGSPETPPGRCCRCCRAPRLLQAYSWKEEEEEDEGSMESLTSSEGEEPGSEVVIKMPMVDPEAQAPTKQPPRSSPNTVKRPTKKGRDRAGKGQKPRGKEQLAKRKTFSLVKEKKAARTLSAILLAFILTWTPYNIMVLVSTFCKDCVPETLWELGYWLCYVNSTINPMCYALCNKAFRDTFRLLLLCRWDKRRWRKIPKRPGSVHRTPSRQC

[4] = target: CB2 (Homo sapiens, UniProt P34972); test: LANCE Ultra cAMP assay
CB2, sequence (P34972 whole entry, species assumed): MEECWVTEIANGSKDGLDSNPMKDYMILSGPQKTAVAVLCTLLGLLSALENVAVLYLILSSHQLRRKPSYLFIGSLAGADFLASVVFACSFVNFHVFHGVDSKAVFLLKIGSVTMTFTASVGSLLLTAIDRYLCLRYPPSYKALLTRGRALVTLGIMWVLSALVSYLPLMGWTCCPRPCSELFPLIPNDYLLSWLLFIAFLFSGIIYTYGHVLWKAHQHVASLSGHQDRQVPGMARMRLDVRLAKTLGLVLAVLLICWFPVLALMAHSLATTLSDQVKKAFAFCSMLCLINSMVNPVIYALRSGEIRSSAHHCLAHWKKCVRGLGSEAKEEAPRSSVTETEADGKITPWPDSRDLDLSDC

[5] = target: T3, CHRM2 (Homo sapiens, UniProt P08172); test: GPCR calcium flux assay; format: cell-based
T3 construct: Pharmaron (Beijing, China), contract laboratory
T3 sequence (P08172 whole entry, species assumed): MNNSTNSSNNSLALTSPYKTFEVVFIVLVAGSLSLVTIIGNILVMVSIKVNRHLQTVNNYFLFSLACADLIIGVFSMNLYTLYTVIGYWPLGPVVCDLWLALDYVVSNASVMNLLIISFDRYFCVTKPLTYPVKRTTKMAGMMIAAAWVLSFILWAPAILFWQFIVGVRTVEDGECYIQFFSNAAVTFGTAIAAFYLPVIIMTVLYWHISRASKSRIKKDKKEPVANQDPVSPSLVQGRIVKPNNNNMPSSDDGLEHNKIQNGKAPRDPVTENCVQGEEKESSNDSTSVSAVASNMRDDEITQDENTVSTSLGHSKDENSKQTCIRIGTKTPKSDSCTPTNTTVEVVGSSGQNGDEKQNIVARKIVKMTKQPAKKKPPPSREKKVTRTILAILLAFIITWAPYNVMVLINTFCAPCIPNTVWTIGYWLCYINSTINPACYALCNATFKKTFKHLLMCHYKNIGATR

[6] = target: ADORA2B (Homo sapiens, UniProt P29275); test: LANCE Ultra cAMP assay
ADORA2B, sequence (P29275 whole entry, species assumed): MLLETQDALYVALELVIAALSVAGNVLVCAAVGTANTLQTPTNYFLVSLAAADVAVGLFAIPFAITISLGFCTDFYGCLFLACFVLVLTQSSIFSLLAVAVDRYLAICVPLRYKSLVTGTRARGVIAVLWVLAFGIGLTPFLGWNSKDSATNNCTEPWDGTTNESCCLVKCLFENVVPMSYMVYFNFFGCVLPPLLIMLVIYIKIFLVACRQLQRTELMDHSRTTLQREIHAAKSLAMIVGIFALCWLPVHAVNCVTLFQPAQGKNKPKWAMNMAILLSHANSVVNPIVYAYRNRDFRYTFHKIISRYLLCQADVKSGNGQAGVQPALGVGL

[7] = test system: MC38 tumors; test: MC38 colorectal cancer model in C57BL/6 mice; format: in vivo, mouse; settings: MC38, 75 mg/kg p.o. daily
Method: Syngeneic mouse tumor‐bearing models were established as described previously (Tan et al., 2018). Tumor cells (5 × 10^5 ‐ 2 × 10^6) were suspended in 100 μl PBS and implanted subcutaneously into the flank of mice. Mice were randomized into different treatment groups when tumor volumes reached 100‐200 mm^3. V = L×W^2 × 0.52, where L is the longest diameter, and W is the shortest diameter. Tumor size and body weight were recorded every second or third day. Mouse survival was analyzed using the Kaplan–Meier method.
Single agent or combination treatment was designed as follows: TP‐16 (37.5, 75, 150 mg/kg) or celecoxib (100 mg/kg) was formulated in 0.5% carboxymethylcellulose sodium (CMC‐Na, Sangon Biotech, Shanghai, China) and administered via oral gavage daily. In vivo anti‐PD1 antibody (clone RMP1‐14, BioXCell, West Lebanon, NH, USA) and rat IgG2a isotype control (clone 2A3, BioXCell) were diluted in sterile PBS and administered intraperitoneally at a dose of 50 μg twice weekly.

[8] = target: T4, AVPR1A (Homo sapiens, UniProt P37288); test: GPCR calcium flux assay; format: cell-based
T4 construct: Pharmaron (Beijing, China), contract laboratory
T4 sequence (P37288 whole entry, species assumed): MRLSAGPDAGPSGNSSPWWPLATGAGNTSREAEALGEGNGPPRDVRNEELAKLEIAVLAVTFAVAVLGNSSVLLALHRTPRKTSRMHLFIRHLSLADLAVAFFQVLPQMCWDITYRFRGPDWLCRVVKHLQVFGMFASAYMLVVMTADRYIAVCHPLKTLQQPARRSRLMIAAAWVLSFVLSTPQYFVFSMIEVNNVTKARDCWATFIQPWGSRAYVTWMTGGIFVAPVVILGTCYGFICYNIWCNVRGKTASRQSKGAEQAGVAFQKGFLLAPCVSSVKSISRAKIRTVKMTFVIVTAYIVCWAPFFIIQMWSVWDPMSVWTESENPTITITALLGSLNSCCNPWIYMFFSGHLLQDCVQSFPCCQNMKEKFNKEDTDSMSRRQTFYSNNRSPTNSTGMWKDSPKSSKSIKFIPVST

[9] = 14-day repeat-dose toxicity study in Sprague Dawley rats; format: in vivo; settings: for Nasal cavity: Normal: animals normal/examined
Method: (three males and three females). […]
orally administrated once daily for 14 days. Abnormal behaviors and mortality
were observed every day and b ody weight was recorded every three days.
Animals were sacrificed on day 15, and blood parameters and organ
morphology were recorded. […]

[10] = target: T5, ADORA3 (Homo sapiens, UniProt P0DMS8); test: LANCE Ultra cAMP assay; format: cell-based
T5 construct: Pharmaron (Beijing, China) performed the assay
T5 sequence (P0DMS8 whole entry, species assumed): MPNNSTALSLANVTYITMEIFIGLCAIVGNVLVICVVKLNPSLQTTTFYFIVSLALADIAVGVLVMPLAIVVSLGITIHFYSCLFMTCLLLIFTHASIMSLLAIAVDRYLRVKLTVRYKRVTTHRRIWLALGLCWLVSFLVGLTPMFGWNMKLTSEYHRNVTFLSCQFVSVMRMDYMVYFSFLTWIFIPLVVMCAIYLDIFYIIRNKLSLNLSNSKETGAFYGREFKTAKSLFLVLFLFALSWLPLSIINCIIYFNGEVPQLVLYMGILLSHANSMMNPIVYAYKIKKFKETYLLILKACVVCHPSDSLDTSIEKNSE

[11] = target: CB1 (Homo sapiens, UniProt P21554); test: LANCE Ultra cAMP assay
CB1, sequence (P21554 whole entry, species assumed): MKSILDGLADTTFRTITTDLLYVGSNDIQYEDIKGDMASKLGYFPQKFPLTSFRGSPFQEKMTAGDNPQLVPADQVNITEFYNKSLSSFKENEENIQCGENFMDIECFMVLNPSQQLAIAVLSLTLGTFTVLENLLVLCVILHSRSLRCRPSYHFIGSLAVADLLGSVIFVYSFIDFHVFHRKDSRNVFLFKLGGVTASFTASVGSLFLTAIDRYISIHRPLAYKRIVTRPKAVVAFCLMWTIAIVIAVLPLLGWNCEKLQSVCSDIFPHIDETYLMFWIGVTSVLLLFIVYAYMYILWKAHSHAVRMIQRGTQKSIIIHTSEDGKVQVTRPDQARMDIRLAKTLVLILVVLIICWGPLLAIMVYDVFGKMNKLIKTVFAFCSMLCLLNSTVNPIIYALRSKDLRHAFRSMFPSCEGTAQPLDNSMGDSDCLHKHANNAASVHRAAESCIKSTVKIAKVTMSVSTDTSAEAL

[12] = male, mouse, plasma, iv, I.V. 1 mg/kg
[13] = male, mouse, plasma, po, P.O. 10 mg/kg
[14] = female, Sprague-Dawley, rat, in vivo, 100 mg/kg/day, 14 days
[15] = male, Sprague-Dawley, rat, in vivo, 100 mg/kg/day, 14 days

T1 sequence (P28336 whole entry): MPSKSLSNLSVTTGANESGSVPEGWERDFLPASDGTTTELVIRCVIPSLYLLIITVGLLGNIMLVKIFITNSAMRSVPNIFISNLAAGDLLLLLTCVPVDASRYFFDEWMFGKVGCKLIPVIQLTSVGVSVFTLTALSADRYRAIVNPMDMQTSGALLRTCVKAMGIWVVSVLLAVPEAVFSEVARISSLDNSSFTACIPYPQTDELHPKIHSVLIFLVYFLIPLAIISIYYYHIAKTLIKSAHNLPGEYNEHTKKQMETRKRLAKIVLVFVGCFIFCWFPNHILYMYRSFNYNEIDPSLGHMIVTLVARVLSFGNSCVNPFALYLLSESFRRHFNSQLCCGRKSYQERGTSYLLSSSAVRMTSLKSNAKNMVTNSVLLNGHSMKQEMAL

## C[C@H](NC(=O)c1c(Cc2ccc(F)cc2)sc2c1CCOC2)c1ccc(C(=O)O)cc1 [TP-16]
[1]
  IC50: > 10 µM
[2]; I.V. 1 mg/kg
  Vd/F: 2.016 L/kg
[2]; male, mouse, plasma, 10 mg/kg, ratio of oral AUC0-∞ to intravenous AUC0-∞
  bioavailability: 40.1%
[2]; [12]
  AUC(0-inf): 2.14 µg·h/mL
  C0: 2.37 µg/mL
  MRT: 2.1 h
  half-life: 3 h
  AUC(0-t): 2.14 µg·h/mL
[2]; [13]
  AUC(0-inf): 8.58 µg·h/mL
  CL/F: 1.17 L/h/kg
  Cmax: 3.85 µg/mL
  MRT: 3.7 h
  half-life: 5.4 h
  AUC(0-t): 8.4 µg·h/mL
[2]; male, mouse, plasma, po, P.O. 10 mg/kg, read-out: Vd/F
  Vd/F: 9.08 L/kg
[3]
  IC50: > 10 µM
[4]
  IC50: > 10 µM
[5]
  IC50: > 10 µM
[6]
  IC50: > 10 µM
[7]
  %TGI: 50.6%
[8]
  IC50: > 10 µM
[9]; female rats, 100 mg/kg/day, 14 days
  Nasal cavity: Normal: 3/3
[9]; [14]
  Brain: Normal: 3/3
  Cervical lymph node: Normal: 3/3
  Colon: Normal: 3/3
  Duodenum: Normal: 3/3
  Esophagus: Normal: 3/3
  Eye: Normal: 3/3
  Femur/Bone marrow: Normal: 3/3
  Harderian gland: Normal: 3/3
  Heart: Normal: 3/3
  Ileum: Normal: 3/3
  Jejunum: Normal: 3/3
  Kidney: Normal: 3/3
  Liver: Normal: 3/3
  Lung: Normal: 3/3
  Mesenteric lymph node: Normal: 3/3
  Ovary: Normal: 3/3
  Pancreas: Normal: 3/3
  Parathyroid gland: Normal: 3/3
  Pituitary gland: Normal: 3/3
  Preputial/Clitoral gland: Normal: 3/3
  Rectum: Normal: 3/3
  Salivary gland: Normal: 3/3
  Skin/ Mammary gland: Normal: 3/3
  Spleen: Normal: 3/3
  Stomach: Normal: 3/3
  Testis: Normal: 3/3
  Thymus: Normal: 3/3
  Thyroid gland: Normal: 3/3
  Trachea: Normal: 3/3
  Urinary bladder: Normal: 3/3
  Uterus: Normal: 3/3
  Vagina: Normal: 3/3
[9]; male rats, 100 mg/kg/day, 14 days
  Nasal cavity: Normal: 3/3
[9]; [15]
  Brain: Normal: 3/3
  Cervical lymph node: Normal: 3/3
  Colon: Normal: 3/3
  Duodenum: Normal: 3/3
  Epididymis: Normal: 3/3
  Esophagus: Normal: 3/3
  Eye: Normal: 3/3
  Femur/Bone marrow: Normal: 3/3
  Harderian gland: Normal: 3/3
  Heart: Normal: 3/3
  Ileum: Normal: 3/3
  Jejunum: Normal: 3/3
  Kidney: Normal: 3/3
  Liver: Normal: 3/3
  Lung: Normal: 3/3
  Mesenteric lymph node: Normal: 3/3
  Pancreas: Normal: 3/3
  Parathyroid gland: Normal: 3/3
  Pituitary gland: Normal: 3/3
  Preputial/Clitoral gland: Normal: 3/3
  Prostate: Normal: 3/3
  Rectum: Normal: 3/3
  Salivary gland: Normal: 3/3
  Seminal vesicle: Normal: 3/3
  Skin/ Mammary gland: Normal: 3/3
  Spleen: Normal: 3/3
  Stomach: Normal: 3/3
  Testis: Normal: 3/3
  Thymus: Normal: 3/3
  Thyroid gland: Normal: 3/3
  Trachea: Normal: 3/3
  Urinary bladder: Normal: 3/3
[9]; rat, in vivo, po, 100 mg/kg
  body weight during 14-day treatment: without statistically significant weight loss
  hematological analysis, overall finding: no adverse changes
  organ morphology, overall finding: no abnormalities
[10]
  IC50: > 10 µM
[11]
  IC50: > 10 µM
